Laboratory results as given in patent US9056874B2, “Complement pathway modulators and uses thereof” (NOVARTIS AG, priority 2012, dated 2015).

What follows are compounds tested against factor B (Homo sapiens, UniProt P00751) (assay: assay of Biological Example 2.7). Settings: assay of Biological Example 2.7 (Table 2).
Type: binding
Design: made in house; host or cells: drosophila cells

Chain of factor B (P00751 26-764): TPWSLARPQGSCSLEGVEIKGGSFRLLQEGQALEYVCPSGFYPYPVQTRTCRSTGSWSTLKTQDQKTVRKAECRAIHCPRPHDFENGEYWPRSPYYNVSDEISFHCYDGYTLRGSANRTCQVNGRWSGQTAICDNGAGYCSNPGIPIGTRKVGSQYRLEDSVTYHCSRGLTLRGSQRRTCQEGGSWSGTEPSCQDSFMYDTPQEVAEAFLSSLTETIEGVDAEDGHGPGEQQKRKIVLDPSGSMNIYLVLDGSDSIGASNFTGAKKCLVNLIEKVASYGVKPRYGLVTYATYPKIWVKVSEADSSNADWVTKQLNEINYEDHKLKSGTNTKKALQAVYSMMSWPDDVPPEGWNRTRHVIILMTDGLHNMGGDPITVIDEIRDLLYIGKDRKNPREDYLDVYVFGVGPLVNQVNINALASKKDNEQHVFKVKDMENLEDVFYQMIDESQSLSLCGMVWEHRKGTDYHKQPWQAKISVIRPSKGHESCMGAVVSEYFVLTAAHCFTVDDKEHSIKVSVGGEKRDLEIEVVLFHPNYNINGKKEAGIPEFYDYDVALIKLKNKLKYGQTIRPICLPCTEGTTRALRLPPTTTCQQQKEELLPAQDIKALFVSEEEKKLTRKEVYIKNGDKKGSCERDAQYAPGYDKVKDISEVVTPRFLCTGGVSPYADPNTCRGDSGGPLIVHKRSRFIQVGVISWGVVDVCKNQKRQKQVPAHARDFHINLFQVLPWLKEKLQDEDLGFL

Row | Structure (SMILES) | IC50 [nM]
1 | CCc1cc(C)c2[nH]ccc2c1C(C)(N)c1nc2cc(C#N)ccc2o1 (single isomer, unassigned) [137-F b) (tr = 4.9 min), (−) or (+)-2-(1-amino-1-(5-ethyl-7-methyl-1H-indol-4-yl)ethyl)benzo[d]oxazole-5-carbonitrile] | 10
2 | COc1cc(C)c2[nH]ccc2c1C(CC(=O)O)c1nc2cc(C#N)ccc2o1 (single isomer, unassigned; (+)) [Example 148-D, (+)-3-(5-cyanobenzo[d]oxazol-2-yl)-3-(5-methoxy-7-methyl-1H-indol-4-yl)propanoic acid] | 340
3 | COc1cc(C)c2[nH]ccc2c1C(Cc1nn[nH]n1)c1nc2cc(C#N)ccc2[nH]1 (racemic) [Example 152, (±)-2-(1-(5-Methoxy-7-methyl-1H-indol-4-yl)-2-(2H-tetrazol-5-yl)ethyl)-1H-benzo[d]imidazole-5-carbonitrile] | 67
4 | COc1cc(C)c2[nH]ccc2c1C(C)(O)c1nc2cc(C#N)ccc2o1 (single isomer, unassigned; (+)) [137-N b) (+), (+)-2-(1-hydroxy-1-(5-methoxy-7-methyl-1H-indol-4-yl)ethyl)benzo[d]oxazole-5-carbonitrile] | 40
5 | COc1cc(C)c2[nH]ccc2c1C(C)(CCC(=O)O)c1nc2cc(C#N)ccc2o1 (racemic) [Example 150-C, (±)-4-(5-cyanobenzo[d]oxazol-2-yl)-4-(5-methoxy-7-methyl-1H-indol-4-yl)pentanoic acid] | 1020
6 | COc1cc(C)c2[nH]ccc2c1C1(c2nc3cc(C#N)ccc3[nH]2)CC1C(=O)O (racemic) [Example 142-D, (±)-2-(5-Cyano-1H-benzo[d]imidazol-2-yl)-2-(5-methoxy-7-methyl-1H-indol-4-yl)cyclopropanecarboxylic acid] | 790
7 | COc1cc(C)c2[nH]ccc2c1C(NCCN)(c1nc2cc(C#N)ccc2[nH]1)C(F)(F)F (racemic) [38-D b) (−), (−)-2-(1-((2-aminoethyl)amino)-2,2,2-trifluoro-1-(5-methoxy-7-methyl-1H-indol-4-yl)ethyl)-1H-benzo[d]imidazole-5-carbonitrile] | 780
8 | COc1cc(C)c2[nH]ccc2c1C(O)c1nc2cc(C#N)ccc2s1 (stereo not shown) [Example 137-C] | 62
9 | CCOC(=O)C(C)(c1nc2cc(C#N)ccc2o1)c1c(OC)cc(C)c2[nH]ccc12 (racemic) [Example 144-D, (±)-Ethyl 2-(5-cyanobenzo[d]oxazol-2-yl)-2-(5-methoxy-7-methyl-1H-indol-4-yl)propanoate] | 7950
10 | COc1cc(C)c2[nH]ccc2c1C(N)(c1nc2cc(C#N)ccc2o1)C(F)(F)F (single isomer, unassigned) [137-B b) (tr = 4.6 min), (−) or (+)-2-(1-amino-2,2,2-trifluoro-1-(5-methoxy-7-methyl-1H-indol-4-yl)ethyl)benzo[d]oxazole-5-carbonitrile] | 3210
11 | COC(C)(c1nc2cc(C#N)ccc2o1)c1c(C2CC2)cc(C)c2[nH]ccc12 (single isomer, unassigned; (+)) [137-L b) (+), (+)-2-(1-(5-cyclopropyl-7-methyl-1H-indol-4-yl)-1-methoxyethyl)benzo[d]oxazole-5-carbonitrile] | 720
12 | Cc1cc(C)c2[nH]ccc2c1C(O)c1cc2cc(C#N)ccc2o1 (stereo not shown) [Example 137-Q] | 1350
13 | COc1cc(C)c2[nH]ccc2c1C(N)c1nc2cc(C#N)ccc2s1 (stereo not shown) [Example 137-E] | 270
14 | COc1cc(C)c2[nH]ccc2c1C(C)(OC)c1nc2cc(C#N)ccc2o1 (single isomer, unassigned; (-)) [137-K b) (−), (−)-2-(1-methoxy-1-(5-methoxy-7-methyl-1H-indol-4-yl)ethyl)benzo[d]oxazole-5-carbonitrile] | 200
15 | COc1cc(C)c2[nH]ccc2c1C(CC(=O)O)c1nc2cc(C#N)ccc2[nH]1 (racemic) [Example 145-D, (±)-3-(5-Cyano-1H-benzo[d]imidazol-2-yl)-3-(5-methoxy-7-methyl-1H-indol-4-yl)propanoic acid] | 41
16 | [2H]C([2H])([2H])OC(C)(c1nc2cc(C#N)ccc2[nH]1)c1c(OC)cc(C)c2[nH]ccc12 (single isomer, unassigned; (+)) [137-I b) (+), (+)-2-(1-(^2H3)methoxy-1-(5-methoxy-7-methyl-1H-indol-4-yl)ethyl)-1H-benzo[d]imidazole-5-carbonitrile] | 110
17 | COc1cc(C)c2[nH]ccc2c1C(C)(O)c1cc2ccc(C#N)cc2[nH]1 (stereo not shown) [Example 137-T] | 50
18 | COc1cc(C)c2[nH]ccc2c1C(C)(O)c1nc2cc(C#N)ccc2o1 (single isomer, unassigned; (-)) [137-N b) (−), (−)-2-(1-hydroxy-1-(5-methoxy-7-methyl-1H-indol-4-yl)ethyl)benzo[d]oxazole-5-carbonitrile] | 6
19 | Cc1cc(O)c(C(N)(c2nc3cc(C#N)ccc3[nH]2)C(F)(F)F)c2cc[nH]c12 (single isomer, unassigned) [Example 141, (+) or (−)-2-(1-amino-2,2,2-trifluoro-1-(5-hydroxy-7-methyl-1H-indol-4-yl)ethyl)-1H-benzo[d]imidazole-5-carbonitrile] | 150

Row | Structure (SMILES) | IC50 [nM]
20 | COc1cc(C)c2[nH]ccc2c1C(NCCN)(c1nc2cc(C#N)ccc2[nH]1)C(F)(F)F (racemic) [38-D b) (+), (+)-2-(1-((2-aminoethyl)amino)-2,2,2-trifluoro-1-(5-methoxy-7-methyl-1H-indol-4-yl)ethyl)-1H-benzo[d]imidazole-5-carbonitrile] | 2060
21 | COc1cc(C)c2[nH]ccc2c1C(OCC(C)(C)C(=O)O)(c1nc2cc(C#N)ccc2o1)C(F)(F)F (racemic) [Example 138, (±)-3-(1-(5-cyanobenzo[d]oxazol-2-yl)-2,2,2-trifluoro-1-(5-methoxy-7-methyl-1H-indol-4-yl)ethoxy)-2,2-dimethylpropanoic acid] | 1220
22 | Cc1cc(Br)c(C(C)(N)c2nc3cc(C#N)ccc3[nH]2)c2cc[nH]c12 (single isomer, unassigned; (-)) [137-A b) (−), (−)-2-(1-amino-1-(5-bromo-7-methyl-1H-indol-4-yl)ethyl)-1H-benzo[d]imidazole-5-carbonitrile] | 20
23 | COc1cc(C)c2[nH]ccc2c1C(CCCC(=O)O)c1nc2cc(C#N)ccc2[nH]1 (racemic) [Example 157, (±)-5-(5-Cyano-1H-benzo[d]imidazol-2-yl)-5-(5-methoxy-7-methyl-1H-indol-4-yl)pentanoic acid] | 39
24 | COc1cc(C)c2[nH]ccc2c1C(c1nc2cc(C#N)ccc2[nH]1)C(C)C(=O)O (single isomer, unassigned; diastereomer b) [Example 147-E, (±)-3-(5-Cyano-1H-benzo[d]imidazol-2-yl)-3-(5-methoxy-7-methyl-1H-indol-4-yl)-2-methylpropanoic acid (Diastereomer B)] | 160
25 | COc1cc(C)c2[nH]ccc2c1C(CCC(=O)O)c1nc2cc(C#N)ccc2o1 (single isomer, unassigned; (+)) [Example 149-C, (+)-4-(5-cyanobenzo[d]oxazol-2-yl)-4-(5-methoxy-7-methyl-1H-indol-4-yl)butanoic acid] | 160
26 | COc1cc(C)c2[nH]ccc2c1C(C)(O)c1cc2cc(C#N)ccc2o1 (stereo not shown) [Example 137-V] | 23
27 | [2H]C([2H])([2H])OC(c1nc2cc(C#N)ccc2[nH]1)(c1c(OC)cc(C)c2[nH]ccc12)C(F)(F)F (single isomer, unassigned; (+)) [137-J b) (+), (+)-2-(2,2,2-trifluoro-1-(^2H3)-methoxy-1-(5-methoxy-7-methyl-1H-indol-4-yl)ethyl)-1H-benzo[d]imidazole-5-carbonitrile] | 1300
28 | COc1cc(C)c2[nH]ccc2c1C(C)(OC)c1cc2cc(C#N)ccc2o1 (stereo not shown) [Example 137-Z] | 520
29 | CNC(C)(c1nc2cc(C#N)ccc2o1)c1c(OC)cc(C)c2[nH]ccc12 (single isomer, unassigned) [137-M b) (tr = 2.9 min), (+) or (−)-2-(1-(5-methoxy-7-methyl-1H-indol-4-yl)-1-(methylamino)ethyl)benzo[d]oxazole-5-carbonitrile] | 370
30 | Cc1cc(C)c2[nH]ccc2c1C(O)c1cc2cc(C#N)ccc2[nH]1 (stereo not shown) [Example 137-P] | 980
31 | COc1cc(C)c2[nH]ccc2c1C(c1nc2cc(C#N)ccc2[nH]1)C(C)C(=O)O (single isomer, unassigned; diastereomer a) [Example 147-D, (±)-3-(5-Cyano-1H-benzo[d]imidazol-2-yl)-3-(5-methoxy-7-methyl-1H-indol-4-yl)-2-methylpropanoic acid (Diastereomer A)] | 790
32 | COc1cc(C)c2[nH]ccc2c1C(c1nc2cc(C#N)ccc2o1)C(C)(C)C(=O)O (racemic) [Example 158, (±)-3-(5-Cyanobenzo[d]oxazol-2-yl)-3-(5-methoxy-7-methyl-1H-indol-4-yl)-2,2-dimethylpropanoic acid] | 21000
33 | COc1cc(C)c2[nH]cc3c2c1C(c1nc2cc(C#N)ccc2[nH]1)(C(F)(F)F)NC3 (single isomer, unassigned; (+)) [Example 36-F, (+)-2-(6-methoxy-8-methyl-5-(trifluoromethyl)-1,3,4,5-tetrahydropyrrolo[4,3,2-de]isoquinolin-5-yl)-1H-benzo[d]imidazole-5-carbonitrile] | 12
34 | COc1cc(C)c2[nH]ccc2c1C(OC(F)C(=O)O)(c1nc2cc(C#N)ccc2[nH]1)C(F)(F)F (racemic) [Example 35-G, (±)-2-(1-(5-Cyano-1H-benzo[d]imidazol-2-yl)-2,2,2-trifluoro-1-(5-methoxy-7-methyl-1H-indol-4-yl)ethoxy)-2-fluoroacetic acid] | 770
35 | COc1cc(C)c2[nH]ccc2c1C(CCO)c1nc2cc(C#N)ccc2[nH]1 (racemic) [Example 145-E, (±)-2-(3-hydroxy-1-(5-methoxy-7-methyl-1H-indol-4-yl)propyl)-1H-benzo[d]imidazole-5-carbonitrile] | 250
36 | COc1cc(C)c2[nH]ccc2c1C(C)(O)c1nc2ccc(C#N)cc2s1 (stereo not shown) [Example 137-S] | 110
37 | COc1cc(C)c2[nH]ccc2c1C(C)(OC)c1nc2ccc(C#N)cc2s1 (stereo not shown) [Example 137-W] | 5220
